Results reported in US20230096766A1, “AMINO ACID HAVING FUNCTIONAL GROUP CAPABLE OF INTERMOLECULAR HYDROGEN BONDING, PEPTIDE COMPOUND CONTAINING SAME AND METHOD FOR PRODUCTION THEREOF” (Chugai Seiyaku Kabushiki Kaisha, priority 2018, published 2023).
*1 amine or outer side, *2 acyl side, *3 side chain or, on linkers, in order; H or OH if unused. Where a SMILES comes first, the peptide text is derived from it. Bridges are numbered along the chain shown (N, C = ends). [ ]: non-standard residue; d: D form. The star is where a group is joined. ξ: configuration not given here. Phe(3-OMe,4-CONHMs) = COc1cc(C[C@H](N)C(=O)O)ccc1C(=O)NS(C)(=O)=O; hPhe(3-OMe,4-CONHMe) = CNC(=O)c1ccc(CC[C@H](N)C(=O)O)cc1OC; NMePhe(3-Cl) = CN[C@@H](Cc1cccc(Cl)c1)C(=O)O; X9 = O=C([C@@H](CN[*:1])COCCO)[*:2]; NMeF = CN[C@@H](Cc1ccccc1)C(=O)O; NMeGABA = CN(CCCC(=O)[*:2])[*:1]; NMeI = CC[C@H](C)[C@H](NC)C(=O)O; NMeL = CN[C@@H](CC(C)C)C(=O)O; NMeV = CN[C@H](C(=O)O)C(C)C; NMeAbu = CC[C@H](NC)C(=O)O; Piperidide = C1CCN(*)CC1; Abu = CC[C@H](N)C(=O)O; NBuGly = CCCCNCC(=O)O; ξL = CC(C)CC(N)C(=O)O; NPrGly = CCCNCC(=O)O; Sar = CNCC(=O)O; tBu = CC(C)(C)*

Assay: in vitro
Settings: human, Caco-2, Caco-2 (cm/sec)

Row | SMILES | Papp
1 | CCCN1CC(=O)N(C)[C@@H](CC(C)C)C(=O)N[C@@H](CC(C)C)C(=O)N(C)[C@@H](Cc2ccccc2)C(=O)N(C)[C@@H](CC(C)C)C(=O)N[C@H](C(=O)N2CCCCC2)CC(=O)N[C@H](CC(C)C)C(=O)N(C)[C@@H](Cc2ccccc2)C(=O)NC[C@@H](COCCO)C(=O)N(C)[C@@H](CC(C)C)C(=O)N[C@@H]([C@@H](C)O)C1=O [AP127] ([dL][NMeF][X9][NMeL]T[NPrGly][NMeL]L[NMeF][NMeL]D-Piperidide; lactam N-11) | 0.3 ×10⁻⁶ cm/s
2 | CCCCN1CC(=O)N(C)[C@@H](CC(C)C)C(=O)NC[C@@H](COCCO)C(=O)N(C)[C@@H](Cc2ccccc2)C(=O)N(C)[C@@H](CC(C)C)C(=O)N[C@H](C(=O)N2CCCCC2)CC(=O)N[C@H](CC(C)C)C(=O)N(C)[C@@H](CC(C)C)C(=O)N[C@@H](Cc2ccccc2)C(=O)N(C)[C@@H](CC(C)C)C(=O)N[C@@H]([C@@H](C)O)C1=O [AP128] ([dL][NMeL]F[NMeL]T[NBuGly][NMeL][X9][NMeF][NMeL]D-Piperidide; lactam N-11) | 0.78 ×10⁻⁶ cm/s
3 | CC(C)C[C@@H]1NC(=O)[C@H](CC(C)C)N(C)C(=O)[C@H](Cc2cccc(Cl)c2)N(C)C(=O)[C@H](COCCO)CNC(=O)[C@H](CC(C)C)N(C)C(=O)CCCN(C)C(=O)C[C@@H](C(=O)N2CCCCC2)NC(=O)[C@H](CC(C)C)N(C)C(=O)[C@H](CC(C)C)N(C)C(=O)[C@H]([C@@H](C)O)NC(=O)[C@H](CC(C)C)N(C)C1=O [AP129] ([NMeGABA][NMeL][X9][NMePhe(3-Cl)][NMeL]L[NMeL]T[NMeL][NMeL]D-Piperidide; lactam N-11) | 0.46 ×10⁻⁶ cm/s
4 | CC[C@H](C)[C@@H]1NC(=O)[C@H](CC(C)C)N(C)C(=O)CCCN(C)C(=O)C[C@@H](C(=O)N2CCCCC2)NC(=O)[C@H](CC(C)C)N(C)C(=O)[C@H](CC(C)C)N(C)C(=O)[C@H]([C@@H](C)O)NC(=O)[C@H](CC(C)C)N(C)C(=O)[C@H](COCCO)CNC(=O)[C@H](CC(C)C)N(C)C(=O)[C@H](Cc2cccc(Cl)c2)N(C)C1=O [AP130] ([NMeGABA][NMeL]I[NMePhe(3-Cl)][NMeL][X9][NMeL]T[NMeL][NMeL]D-Piperidide; lactam N-11) | 0.46 ×10⁻⁶ cm/s
5 | CCCCN1CC(=O)N(C)[C@@H](CC(C)C)C(=O)N[C@H](C(=O)N2CCCCC2)CC(=O)N(C)[C@@H](CC(C)C)C(=O)NC[C@@H](COCCO)C(=O)N(C)[C@@H](CC(C)C)C(=O)N(C)[C@@H](Cc2ccccc2)C(=O)N[C@@H](CC(C)C)C(=O)N(C)[C@@H](Cc2ccccc2)C(=O)N(C)[C@@H](CC(C)C)C(=O)N[C@@H]([C@@H](C)O)C1=O [AP131] ([NMeL][X9][NMeL][NMeF]L[NMeF][NMeL]T[NBuGly][NMeL]D-Piperidide; lactam N-11) | 1.1 ×10⁻⁶ cm/s
6 | CCCCN1CC(=O)N(C)[C@@H](Cc2ccccc2)C(=O)NC[C@@H](COCCO)C(=O)N(C)[C@@H](CC(C)C)C(=O)N[C@@H]([C@@H](C)O)C(=O)N(CCC)CC(=O)N(C)[C@@H](Cc2ccccc2)C(=O)N(C)[C@@H](CC(C)C)C(=O)N[C@@H](CC(C)C)C(=O)N(C)[C@@H](CC(C)C)C(=O)N[C@H](C(=O)N2CCCCC2)CC1=O [AP133] ([NBuGly][NMeF][X9][NMeL]T[NPrGly][NMeF][NMeL]L[NMeL]D-Piperidide; lactam N-11) | 1.8 ×10⁻⁶ cm/s
7 | CCCCN1CC(=O)N(C)[C@@H](Cc2ccccc2)C(=O)N[C@@H]([C@@H](C)CC)C(=O)N(C)[C@@H](CC(C)C)C(=O)N[C@@H]([C@@H](C)O)C(=O)N(CCC)CC(=O)N(C)[C@@H](Cc2ccccc2)C(=O)N(C)[C@@H](CC(C)C)C(=O)NC[C@@H](COCCO)C(=O)N(C)[C@@H](CC(C)C)C(=O)N[C@H](C(=O)N2CCCCC2)CC1=O [AP134] ([NBuGly][NMeF]I[NMeL]T[NPrGly][NMeF][NMeL][X9][NMeL]D-Piperidide; lactam N-11) | 0.62 ×10⁻⁶ cm/s
8 | CCCCN1CC(=O)N(C)[C@@H](CC(C)C)C(=O)N[C@@H](COC(C)(C)C)C(=O)N(C)[C@@H](Cc2ccccc2)C(=O)N(C)[C@@H](CC(C)C)C(=O)N[C@H](C(=O)N2CCCCC2)CC(=O)N[C@H](C(C)C)C(=O)N(C)[C@@H](C(C)C)C(=O)N[C@@H](Cc2ccc(C(=O)NS(C)(=O)=O)c(OC)c2)C(=O)N(C)[C@@H](CC(C)C)C(=O)N[C@@H]([C@@H](C)O)C1=O [AP135] ([dV][NMeV][Phe(3-OMe,4-CONHMs)][NMeL]T[NBuGly][NMeL]S(tBu)[NMeF][NMeL]D-Piperidide; lactam N-11) | 0.88 ×10⁻⁶ cm/s
9 | CCCCN1CC(=O)N(C)[C@@H](CC(C)C)C(=O)N[C@@H](Cc2ccc(C(=O)NS(C)(=O)=O)c(OC)c2)C(=O)N(C)[C@@H](CC(C)C)C(=O)N(C)[C@@H](CC(C)C)C(=O)N[C@H](C(=O)N2CCCCC2)CC(=O)N[C@H](CC(C)C)C(=O)N(C)[C@@H](Cc2ccccc2)C(=O)N[C@@H](C(C)C)C(=O)N(C)[C@@H](CC(C)C)C(=O)N[C@@H]([C@@H](C)O)C1=O [AP136] ([dL][NMeF]V[NMeL]T[NBuGly][NMeL][Phe(3-OMe,4-CONHMs)][NMeL][NMeL]D-Piperidide; lactam N-11) | 0.47 ×10⁻⁶ cm/s
10 | CCCCN1CC(=O)N(C)[C@@H](CC(C)C)C(=O)N[C@@H](COC(C)(C)C)C(=O)N(C)[C@@H]([C@@H](C)CC)C(=O)N(C)[C@@H](CC(C)C)C(=O)N[C@H](C(=O)N2CCCCC2)CC(=O)N[C@H](C)C(=O)N(C)[C@@H](Cc2ccccc2)C(=O)N[C@@H](Cc2ccc(C(=O)NS(C)(=O)=O)c(OC)c2)C(=O)N(C)[C@@H](CC(C)C)C(=O)N[C@@H]([C@@H](C)O)C1=O [AP137] ([dA][NMeF][Phe(3-OMe,4-CONHMs)][NMeL]T[NBuGly][NMeL]S(tBu)[NMeI][NMeL]D-Piperidide; lactam N-11) | < 0.29 ×10⁻⁶ cm/s
11 | CC[C@H](C)[C@@H]1NC(=O)[C@H](CC(C)C)N(C)C(=O)CCCN(C)C(=O)C[C@@H](C(=O)N2CCCCC2)NC(=O)[C@H](CC(C)C)N(C)C(=O)[C@H](CC(C)C)N(C)C(=O)[C@H]([C@@H](C)O)NC(=O)[C@H](CC(C)C)N(C)C(=O)[C@H](Cc2ccc(C(=O)NS(C)(=O)=O)c(OC)c2)NC(=O)[C@H](CC(C)C)N(C)C(=O)[C@H](Cc2ccccc2)N(C)C1=O [AP138] ([NMeGABA][NMeL]I[NMeF][NMeL][Phe(3-OMe,4-CONHMs)][NMeL]T[NMeL][NMeL]D-Piperidide; lactam N-11) | 0.06 ×10⁻⁶ cm/s
12 | CCCCN1CC(=O)N(C)[C@@H](CC(C)C)C(=O)N(C)[C@@H](CC(C)C)C(=O)N[C@@H](COC(C)(C)C)C(=O)N(C)[C@@H](CC(C)C)C(=O)N[C@H](C(=O)N2CCCCC2)CC(=O)N(C)CC(=O)N(C)[C@@H](Cc2cccc(Cl)c2)C(=O)N[C@@H](Cc2ccc(C(=O)NS(C)(=O)=O)c(OC)c2)C(=O)N(C)[C@@H](CC(C)C)C(=O)N[C@@H]([C@@H](C)O)C1=O [AP140] ([Sar][NMePhe(3-Cl)][Phe(3-OMe,4-CONHMs)][NMeL]T[NBuGly][NMeL][NMeL]S(tBu)[NMeL]D-Piperidide; lactam N-11) | 0.49 ×10⁻⁶ cm/s
13 | COc1cc(C[C@@H]2NC(=O)[C@H](CC(C)C)N(C)C(=O)[C@H](COC(C)(C)C)NC(=O)[C@H](Cc3ccccc3)N(C)C(=O)[C@H](CC(C)C)N(C)C(=O)[C@H](C)NC(=O)[C@H](CC(C)C)N(C)C(=O)CCCN(C)C(=O)C[C@@H](C(=O)N3CCCCC3)NC(=O)[C@H](CC(C)C)N(C)C(=O)[C@H](CC(C)C)N(C)C2=O)ccc1C(=O)NS(C)(=O)=O [AP141] ([NMeGABA][NMeL]A[NMeL][NMeF]S(tBu)[NMeL][Phe(3-OMe,4-CONHMs)][NMeL][NMeL]D-Piperidide; lactam N-11) | < 0.27 ×10⁻⁶ cm/s
14 | COc1cc(C[C@@H]2NC(=O)[C@H](C(C)C)N(C)C(=O)[C@H](CC(C)C)N(C)C(=O)C(CC(C)C)NC(=O)[C@H](CC(C)C)N(C)C(=O)[C@H](CC(C)C)N(C)C(=O)[C@H](C)NC(=O)[C@H](CC(C)C)N(C)C(=O)C[C@@H](C(=O)N3CCCCC3)NC(=O)[C@H](CC(C)C)N(C)C(=O)CN(C)C2=O)ccc1C(=O)NS(C)(=O)=O (stereo partly drawn) [AP142] ([NMeL]A[NMeL][NMeL][ξL][NMeL][NMeV][Phe(3-OMe,4-CONHMs)][Sar][NMeL]D-Piperidide; lactam N-11) | 0.63 ×10⁻⁶ cm/s
15 | CC[C@@H]1NC(=O)[C@H](CC(C)C)N(C)C(=O)[C@H](Cc2ccccc2)N(C)C(=O)CN(C)C(=O)[C@H](Cc2ccc(C(=O)NS(C)(=O)=O)c(OC)c2)NC(=O)[C@H](CC(C)C)N(C)C(=O)[C@H](C(C)C)NC(=O)[C@H](CC(C)C)N(C)C(=O)CN(C)C(=O)C[C@@H](C(=O)N2CCCCC2)NC(=O)[C@H](CC(C)C)N(C)C1=O [AP143] ([Sar][NMeL]V[NMeL][Phe(3-OMe,4-CONHMs)][Sar][NMeF][NMeL][Abu][NMeL]D-Piperidide; lactam N-11) | 0.13 ×10⁻⁶ cm/s
16 | CNC(=O)c1ccc(CC[C@@H]2NC(=O)[C@H](CC(C)C)N(C)C(=O)CN(C)C(=O)[C@H]([C@@H](C)O)NC(=O)[C@H](CC(C)C)N(C)C(=O)[C@H](CC(C)C)NC(=O)[C@H](Cc3ccccc3)N(C)C(=O)[C@@H](C(C)C)NC(=O)C[C@@H](C(=O)N3CCCCC3)NC(=O)[C@H](CC(C)C)N(C)C(=O)[C@H](CC(C)C)N(C)C2=O)cc1OC [AP200] ([dV][NMeF]L[NMeL]T[Sar][NMeL][hPhe(3-OMe,4-CONHMe)][NMeL][NMeL]D-Piperidide; lactam N-11) | 0.88 ×10⁻⁶ cm/s
17 | CCCCN1CC(=O)N(C)[C@@H](CC(C)C)C(=O)N[C@@H](COC(C)(C)C)C(=O)N(C)[C@@H](CC(C)C)C(=O)N(C)[C@@H](CC)C(=O)N[C@H](C(=O)N2CCCCC2)CC(=O)N[C@H](CC(C)C)C(=O)N(C)[C@@H](Cc2ccccc2)C(=O)N[C@@H](CCc2ccc(C(=O)NC)c(OC)c2)C(=O)N(C)[C@@H](CC(C)C)C(=O)N[C@@H]([C@@H](C)O)C1=O [AP201] ([dL][NMeF][hPhe(3-OMe,4-CONHMe)][NMeL]T[NBuGly][NMeL]S(tBu)[NMeL][NMeAbu]D-Piperidide; lactam N-11) | 0.35 ×10⁻⁶ cm/s
18 | CC[C@H](C)[C@@H]1NC(=O)[C@H](CC(C)C)N(C)C(=O)CCCN(C)C(=O)C[C@@H](C(=O)N2CCCCC2)NC(=O)[C@H](CC(C)C)N(C)C(=O)[C@H](CC(C)C)N(C)C(=O)[C@H]([C@@H](C)O)NC(=O)[C@H](CC(C)C)N(C)C(=O)[C@H](CCc2ccc(C(=O)NC)c(OC)c2)NC(=O)[C@H](CC(C)C)N(C)C(=O)[C@H](Cc2ccccc2)N(C)C1=O [AP202] ([NMeGABA][NMeL]I[NMeF][NMeL][hPhe(3-OMe,4-CONHMe)][NMeL]T[NMeL][NMeL]D-Piperidide; lactam N-11) | 0.18 ×10⁻⁶ cm/s
